This note sets out measurements from patent publication US5187156A, “Peptide compounds, processes for preparation thereof and pharmaceutical composition comprising the same” (priority 1988, dated 1993).

Non-standard residues stand in square brackets, D forms with d. Residues, ends and D or L forms follow the SMILES beside them. *: point of attachment. Boc = CC(C)(C)OC(=O)*; OBn = c1ccc(CO*)cc1; For = O=C*

T1 sequence (P30547 whole entry): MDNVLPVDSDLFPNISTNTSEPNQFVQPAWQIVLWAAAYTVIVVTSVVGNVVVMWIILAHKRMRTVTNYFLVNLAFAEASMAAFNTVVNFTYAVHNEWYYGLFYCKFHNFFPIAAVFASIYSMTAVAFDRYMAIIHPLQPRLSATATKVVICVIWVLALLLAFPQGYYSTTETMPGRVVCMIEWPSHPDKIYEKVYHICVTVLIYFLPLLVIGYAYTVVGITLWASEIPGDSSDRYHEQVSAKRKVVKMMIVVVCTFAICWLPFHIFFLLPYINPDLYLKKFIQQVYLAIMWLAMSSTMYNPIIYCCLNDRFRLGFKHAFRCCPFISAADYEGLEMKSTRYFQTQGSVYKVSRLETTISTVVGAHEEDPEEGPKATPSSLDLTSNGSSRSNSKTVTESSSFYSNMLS

This test concerns the target T1, Substance P receptor (Cavia porcellus, UniProt P30547).
T1 construct: from tissue; host or cells: guinea pig (male Hartley) trachea and lung, crude membrane fraction
The experiment in a line: 3H-Substance P receptor binding to guinea pig crude lung membrane preparation. To be noted: test compound 1 μg/ml; 3H-substance P 1 nM; guinea pig crude lung membrane fraction; 4° C., 30 minutes. Here is the method: 1. ^3 H-Substance P receptor binding
(a) Crude lung membrane preparation
Male Hartley strain guinea pigs were sacrificed by decapitation. The trachea and lung were removed and homogenized in buffer (0.25M sucrose, 50 mM Tris-HCl pH 7.5, 0.1 mM EDTA) by using Polytoron (Kinematica). The homogenate was centrifuged (1000 xg, 10 min) to remove tissue clumps and the supernatant was centrifuges (14000 xg 20 min) to yield pellets. The pellets were resuspended in buffer (5 mM Tris-HCl pH 7.5), homogenized with a teflon homogenizer and centrifuged (14000 xg, 20 min) to yield pellets which were referred to as crude membrane fractions. The obtained pellets were stored at -70° C. until use.
(b) ^3 H-Substance P binding to preparative membrane
Frozen crude membrane fractions were thawed and resuspended in Medium 1 (50 mM Tris-HCl pH 7.5, 5 mM MnCl2, 0.02% BSA, 2 μg/ml chymostatin, 4 μg/ml leupeptin, 40 μg/ml bacitracin.) ^3 H-substance P (1 nM) was incubated with 100 μl of the membrane preparation in Medium 1 at 4° C. for 30 minutes in a final volume of 500 µl. At the end of the incubation period, reaction mixture was quickly filtered over a Whatman GF/B glass filter (pretreated with 0.1% polyethylene imine for 3 hours prior to use) under aspiration. The filters were then washed four times with 5 ml of the buffer (50 mM Tris-HCl, pH 7.5). The radioactivity was counted in 5 ml of Aquazol-2 in Packerd scintillation counter (Packerd TRI-CARB 4530).
For orientation: inhibition means the share of the control response that was lost under treatment. The low end stands for a response near the control, the high end for a response far below the control. `CC(C)(C)OC(=O)N[C@@H](CCC(N)=O)C(=O)N[C@H](Cc1cn(C=O)c2ccccc12)C(=O)N[C@@H](Cc1ccccc1)C(=O)OCc1ccccc1` [Test Compound (a), Boc-Gln-D-Trp(CHO)-Phe-OBzl] (Boc-Gln-[dW](For)-Phe-OBn) showed an inhibition at 1 µg/mL of 100%. As for `CC(=O)N[C@@H](CCC(N)=O)C(=O)N[C@H](Cc1cn(C=O)c2ccccc12)C(=O)N[C@@H](Cc1ccccc1)C(=O)OCc1ccccc1` [Test Compound (b), Ac-Gln-D-Trp(CHO)-Phe-OBzl] (Ac-Gln-[dW](For)-Phe-OBn), the inhibition at 1 µg/mL was determined as 100%. The same measure, in the same setting: as for `CC(C)(C)OC(=O)N[C@@H](CC(N)=O)C(=O)N[C@H](Cc1cn(C=O)c2ccccc12)C(=O)N[C@@H](Cc1ccccc1)C(=O)OCc1ccccc1` [Test Compound (d), Boc-Asn-D-Trp(CHO)-Phe-OBzl] (Boc-Asn-[dW](For)-Phe-OBn), the figure is 99%; as for `CC(C)(C)OC(=O)N[C@@H](CO)C(=O)N[C@H](Cc1cn(C=O)c2ccccc12)C(=O)N[C@@H](Cc1ccccc1)C(=O)OCc1ccccc1` [Test Compound (e), Boc-Ser-D-Trp(CHO)-Phe-OBzl] (Boc-Ser-[dW](For)-Phe-OBn), 99%; as for `CN(C)C(=O)CC[C@H](NC(=O)OC(C)(C)C)C(=O)N[C@H](Cc1cn(C=O)c2ccccc12)C(=O)N[C@@H](Cc1ccccc1)C(=O)OCc1ccccc1` [Test Compound (f), Boc-Glu(NMe2)-D-Trp(CHO)-Phe-OBzl] (Boc-Glu(NMe2)-[dW](For)-Phe-OBn), 100%. In turn, `C[C@@H](O)[C@H](NC(=O)OC(C)(C)C)C(=O)N[C@H](Cc1cn(C=O)c2ccccc12)C(=O)N[C@@H](Cc1ccccc1)C(=O)OCc1ccccc1` [Test Compound (g), Boc-Thr-D-Trp(CHO)-Phe-OBzl] (Boc-Thr-[dW](For)-Phe-OBn) displayed an inhibition at 1 µg/mL of 100%.

Consider `CN(Cc1ccccc1)C(=O)[C@H](Cc1ccccc1)NC(=O)[C@@H](Cc1cn(C=O)c2ccccc12)NC(=O)[C@H](CCC(N)=O)NC(=O)OC(C)(C)C` [Test Compound (h), Boc-Gln-D-Trp(CHO)-Phe-NMeBzl], for which testing at 1 µg/mL gave an inhibition of 100%. With `C[C@@H](O)[C@H](NC(=O)OC(C)(C)C)C(=O)N[C@H](Cc1cn(C=O)c2ccccc12)C(=O)N[C@@H](Cc1ccccc1)C(=O)N(C)Cc1ccccc1` [Test Compound (i), Boc-Thr-D-Trp(CHO)-Phe-NMeBzl], at 1 µg/mL the inhibition was 100%.

The compound `CN(C)C(=O)CC[C@H](NC(=O)OC(C)(C)C)C(=O)N[C@H](Cc1cn(C=O)c2ccccc12)C(=O)N[C@@H](Cc1ccccc1)C(=O)N(C)Cc1ccccc1` [Test Compound (j), Boc-Glu(NMe2)-D-Trp(CHO)-Phe-NMeBzl] came in with an inhibition at 1 µg/mL of 100%.

With `CC(=O)N[C@H](C(=O)N[C@H](Cc1cn(C=O)c2ccccc12)C(=O)N[C@@H](Cc1ccccc1)C(=O)N(C)Cc1ccccc1)[C@@H](C)O` [Test Compound (k), Ac-Thr-D-Trp(CHO)-Phe-NMeBzl], the inhibition at 1 µg/mL was 100%. `CC(=O)N[C@@H](CCC(=O)N(C)C)C(=O)N[C@H](Cc1cn(C=O)c2ccccc12)C(=O)N[C@@H](Cc1ccccc1)C(=O)N(C)Cc1ccccc1` [Test Compound (l), Ac-Glu(NMe2)-D-Trp(CHO)-Phe-NMeBzl] yielded an inhibition at 1 µg/mL of 100%. Regarding “Z-Gln-D-Trp(CHO) -Phe-OBzl [Test Compound (c)]”, the “Inhibition (%)” value is reported as 93%.
